Reference: ChEMBL document CHEMBL1126249, “Synthesis and antiviral activity of deoxy analogs of 1-[(2-hydroxyethoxy)methyl]-6-(phenylthio)thymine (HEPT) as potent and selective anti-HIV-1 agents” (J Med Chem, 1992)

Experiments:
[1] = system: Human immunodeficiency virus 1; assay: Effective concentration required for 50% protection of MT-4 cells against the cytopathic effect of HIV-1; format: functional, organism-based; settings: Human immunodeficiency virus 1, MT4
[2] = system: MT4; assay: Ratio of the EC50 against HIV-1 infected MT-4 cells and CC50 against mock infected MT-4 cells.; format: functional
[3] = Concentration required to reduce viability of mock-infected MT-4 cells; format: functional; settings: Homo sapiens, MT4
[4] = Concentration required to reduce viability of Mock infected PBL (peripheral blood lymphocytes) cells.; format: functional; settings: Homo sapiens
[5] = system: MT4; assay: Cytotoxicity to required to reduce viability of Mock infected MT-4 cells of LAV-2rod strain against HIV-2 replication; format: functional; settings: Homo sapiens
[6] = system: MT4; assay: Concentration required to inhibit replication of HIV-2 LAV-2rod strain in MT-4 cells; format: functional, cell-based; settings: Homo sapiens
[7] = Concentration required to inhibit replication of HIV-1 HTLV-IIIB strain in PBL (peripheral blood lymphocytes) cells; format: functional, cell-based; settings: Homo sapiens
[8] = system: MT4; assay: Concentration to required to reduce viability of Mock infected MT-4 cells; format: functional; settings: Homo sapiens

| Compound | EC50 [1] [µM] | Selectivity index [2] | CC50 [3] [µM] | CC50 [4] [µM] | CC50 [5] [µM] | EC50 [6] [µM] | EC50 [7] [µM] | CC50 [8] [µM] |
| --- | --- | --- | --- | --- | --- | --- | --- | --- |
| CCOCn1c(Sc2cc(Cl)cc(Cl)c2)c(CC)c(=O)[nH]c1=S | 0.013 | 3460 | 45 | – | – | – | – | – |
| CCOCn1c(Sc2cc(C)cc(C)c2)c(CC)c(=O)[nH]c1=O | 0.0054 | >18500 | > 100 | 56 | > 100 | > 100 | 0.0018 | – |
| CCc1c(Sc2ccccc2)n(COCCc2ccccc2)c(=O)[nH]c1=O | 0.096 | 396 | 38 | – | – | – | – | – |
| CCc1c(Sc2ccccc2)n(COCc2ccc(Cl)cc2)c(=S)[nH]c1=O | 0.012 | >1670 | > 20 | – | – | – | – | – |
| CCc1c(Sc2ccccc2)n(COCc2ccccc2)c(=S)[nH]c1=O | 0.0078 | >12800 | > 100 | 28 | – | > 100 | 0.0037 | > 100 |
| CCn1c(Sc2ccccc2)c(C)c(=O)[nH]c1=O | 2.2 | 43 | 94 | – | – | – | – | – |
| Cc1c(Sc2ccccc2)n(C)c(=O)[nH]c1=O | > 150 | <1 | 150 | – | – | – | – | – |
| CCc1c(Sc2cc(C)cc(C)c2)n(COCc2ccccc2)c(=S)[nH]c1=O | 0.0069 | >2900 | > 20 | – | – | – | – | – |
| CC(C)c1c(Sc2ccccc2)n(COCc2ccccc2)c(=S)[nH]c1=O | 0.0068 | >2940 | > 20 | – | – | – | – | – |
| CCc1c(Sc2ccccc2)n(CC(C)C)c(=S)[nH]c1=O | 0.22 | >455 | > 100 | – | – | – | – | – |
| CCOCn1c(Sc2ccccc2)c(C)c(=O)[nH]c1=O | 0.33 | 700 | – | – | – | – | – | – |
| CCOCn1c(Sc2ccccc2)c(C2CC2)c(=O)[nH]c1=O | 0.1 | 2240 | 224 | – | – | – | – | – |
| CCOCn1c(Sc2ccccc2)c(C(C)C)c(=O)[nH]c1=S | 0.014 | >7140 | > 100 | – | – | – | – | – |
| CCc1c(Sc2ccccc2)n(COCCc2ccccc2)c(=S)[nH]c1=O | 0.091 | >220 | > 20 | – | – | – | – | – |
| CCCCn1c(Sc2ccccc2)c(C)c(=O)[nH]c1=O | 1.2 | 74 | 89 | – | – | – | – | – |
| CCc1c(Sc2ccccc2)n(COCc2ccccc2)c(=O)[nH]c1=O | 0.0059 | 5800 | – | 43 | – | > 30 | 0.0015 | 30 |
| Cc1cn([C@H]2C[C@H](N=[N+]=[N-])[C@@H](CO)O2)c(=O)[nH]c1=O [ZIDOVUDINE] | – | 2600 | – | 26 | – | 0.0028 | 0.0014 | 7.8 |
| Cc1c(Sc2ccccc2)n(COCCOCc2ccccc2)c(=O)[nH]c1=O | > 20 | 2.3 | – | – | – | – | – | – |
| CCOCn1c(Sc2ccccc2)c(CC)c(=O)[nH]c1=S | 0.026 | 3120 | 81 | 35 | – | > 50 | 0.013 | 50 |
| Cc1c(O)nc(O)nc1Sc1ccccc1 | > 250 | <1 | 250 | – | – | – | – | – |

| Compound | EC50 [1] [µM] | Selectivity index [2] | CC50 [3] [µM] | CC50 [4] [µM] | CC50 [5] [µM] | EC50 [6] [µM] | EC50 [7] [µM] | CC50 [8] [µM] |
| --- | --- | --- | --- | --- | --- | --- | --- | --- |
| CCc1c(Sc2ccccc2)n(COCC2CCCCC2)c(=O)[nH]c1=O | 0.45 | 38 | 17 | – | – | – | – | – |
| CC(C)c1c(Sc2ccccc2)n(COCc2ccccc2)c(=O)[nH]c1=O | 0.0027 | >7410 | > 20 | – | – | – | – | – |
| CCc1c(Sc2ccccc2)n(COCC2CCCCC2)c(=S)[nH]c1=O | 0.35 | >286 | > 100 | – | – | – | – | – |
| CCOCn1c(Sc2ccccc2)c(C(C)C)c(=O)[nH]c1=O | 0.012 | 8830 | 106 | – | – | – | – | – |
| COCn1c(Sc2ccccc2)c(C)c(=O)[nH]c1=O | 2.1 | 116 | 244 | – | – | – | – | – |
| CCc1c(Sc2ccccc2)n(COC2CCCCC2)c(=O)[nH]c1=O | 4 | >25 | > 100 | – | – | – | – | – |
| Cc1c(Sc2ccccc2)n(COCC[Si](C)(C)C)c(=O)[nH]c1=O | > 32 | <1 | 32 | – | – | – | – | – |
| CCc1c(Sc2ccccc2)n(COC(C)C)c(=O)[nH]c1=O | 0.34 | 421 | 143 | – | – | – | – | – |
| Cc1c(Sc2ccccc2)n(COCc2ccccc2)c(=O)[nH]c1=O | 0.088 | 1080 | – | – | – | – | – | – |
| CCc1c(Sc2cc(C)cc(C)c2)n(COCc2ccccc2)c(=O)[nH]c1=O | 0.0032 | >6250 | > 20 | – | – | – | – | – |
| CCc1c(Sc2ccccc2)n(COC2CCCCC2)c(=S)[nH]c1=O | 1.6 | 139 | 223 | – | – | – | – | – |
| CCOCn1c(Sc2ccccc2)c(C2CC2)c(=O)[nH]c1=S | 0.095 | 484 | 46 | – | – | – | – | – |
| CCc1c(Sc2ccccc2)n(COCc2ccc(C)cc2)c(=S)[nH]c1=O | 0.078 | >256 | > 20 | – | – | – | – | – |
| CCOCn1c(Sc2ccccc2)c(CC)c(=O)[nH]c1=O | 0.019 | 8500 | – | 93 | – | > 146 | 0.011 | 146 |
| CCOCn1c(Sc2cc(Cl)cc(Cl)c2)c(CC)c(=O)[nH]c1=O | 0.0074 | 6080 | 45 | – | – | – | – | – |
| CCOCn1c(Sc2cc(C)cc(C)c2)c(CC)c(=O)[nH]c1=S | 0.0044 | >22700 | > 100 | 33 | – | > 100 | 0.0022 | > 100 |
| CCCCOCn1c(Sc2ccccc2)c(C)c(=O)[nH]c1=O | 4.7 | 18 | 83 | – | – | – | – | – |
| CCCCCOCCOCn1c(Sc2ccccc2)c(C)c(=O)[nH]c1=O | > 55 | <1 | 55 | – | – | – | – | – |
| CCCOCn1c(Sc2ccccc2)c(C)c(=O)[nH]c1=O | 3.6 | 41 | 147 | – | – | – | – | – |
| COCCOCn1c(Sc2ccccc2)c(C)c(=O)[nH]c1=O | 8.7 | 34 | – | – | – | – | – | – |
